Laboratory results: US10167262B2, “Herbicidal substituted 3-arylpyrazoles” (FMC CORPORATION, priority 2014, dated 2019)

Columns and labels:
Assay type in all cases: in vivo
[1] = tested on: kochia (Kochia scoparia); assay: Test C postemergence greenhouse test, plant response rating 0-100; settings: for Plant response rating, Kochia: scale 0 to 100
How it was run: (§1)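 First, plants were raised in a sphagnum peat, vermiculite and nutrient medium to 1–4 leaves. Next, formulated test compounds were applied over the foliage. Finally, after 13–15 greenhouse days, injury was compared with controls and scored 0–100.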

[2] = tested on: chickweed (common chickweed, Stellaria media); assay: as above; settings: for Plant response rating, Chickweed: scale 0 to 100
How it was run: as §1

[3] = tested on: wild oat (Avena fatua); assay: as above; settings: for Plant response rating, Oat, Wild: scale 0 to 100
How it was run: as §1

[4] = tested on: lambsquarters (Chenopodium album); assay: Test C pre-/postemergence greenhouse test, plant response rating 0-100; settings: Postemergence; for Plant response rating, Lambsquarters: scale 0 to 100
How it was run: (§2)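 Scores run from 0, no effect, to 100, complete control, assigned by eye after treated plants and controls spent 13 to 15 days in a greenhouse. Soil-applied treatment went onto freshly sown seed in loam and sand; foliar treatment hit seedlings at the 1- to 4-leaf stage.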

[5] = tested on: yellow nutsedge (Cyperus esculentus); assay: as above; settings: Postemergence; for Plant response rating, Nutsedge, Yellow: scale 0 to 100
How it was run: as §2

[6] = tested on: winter wheat (Triticum aestivum); assay: as above; settings: Postemergence; for Plant response rating, Wheat: scale 0 to 100
How it was run: as §2

[7] = tested on: corn (Zea mays); assay: as above; settings: Postemergence; for Plant response rating, Corn: scale 0 to 100
How it was run: as §2

[8] = tested on: pigweed (Amaranthus retroflexus); assay: as above; settings: Postemergence; for Plant response rating, Pigweed: scale 0 to 100
How it was run: as §2

[9] = tested on: galium (catchweed bedstraw, Galium aparine); assay: as above; settings: Postemergence; for Plant response rating, Galium: scale 0 to 100
How it was run: as §2

[10] = tested on: soybean (Glycine max); assay: as above; settings: Postemergence; for Plant response rating, Soybean: scale 0 to 100
How it was run: as §2

[11] = tested on: Italian ryegrass (Lolium multiflorum); assay: as above; settings: Postemergence; for Plant response rating, Ryegrass, Italian: scale 0 to 100
How it was run: as §2

[12] = tested on: johnsongrass (Sorghum halepense); assay: as above; settings: Postemergence; for Plant response rating, Johnsongrass: scale 0 to 100
How it was run: as §2

[13] = tested on: giant foxtail (Setaria faberii); assay: as above; settings: Postemergence; for Plant response rating, Foxtail, Giant: scale 0 to 100
How it was run: as §2

Cn1cc(C(=O)c2cccs2)c(-c2cc(Cl)cc(Cl)c2)n1 [Compound 17]
Plant response rating (0 to 100), Kochia ([1]; 62 g ai/ha): 30 | Plant response rating (0 to 100), Kochia ([1]; 125 g ai/ha): 50 | Plant response rating, Kochia ([1]; 250 g ai/ha): 50 | Plant response rating, Kochia ([1]; 500 g ai/ha): 55 | Plant response rating (0 to 100), Chickweed ([2]; 62 g ai/ha): 10 | Plant response rating (0 to 100), Chickweed ([2]; 125 g ai/ha): 65 | Plant response rating, Chickweed ([2]; 250 g ai/ha): 85 | Plant response rating, Chickweed ([2]; 500 g ai/ha): 85 | Plant response rating (0 to 100), Oat, Wild ([3]; 62 g ai/ha): 0 | Plant response rating (0 to 100), Oat, Wild ([3]; 125 g ai/ha): 0 | Plant response rating, Oat, Wild ([3]; 250 g ai/ha): 0 | Plant response rating, Oat, Wild ([3]; 500 g ai/ha): 0 | Plant response rating (0 to 100), Lambsquarters ([4]; 62 g ai/ha): 15 | Plant response rating (0 to 100), Lambsquarters ([4]; 125 g ai/ha): 55 | Plant response rating, Lambsquarters ([4]; 250 g ai/ha): 80 | Plant response rating, Lambsquarters ([4]; 500 g ai/ha): 98 | Plant response rating (0 to 100), Nutsedge, Yellow ([5]; 62 g ai/ha): 0 | Plant response rating (0 to 100), Nutsedge, Yellow ([5]; 125 g ai/ha): 5 | Plant response rating, Nutsedge, Yellow ([5]; 250 g ai/ha): 5 | Plant response rating, Nutsedge, Yellow ([5]; 500 g ai/ha): 5 | Plant response rating (0 to 100), Wheat ([6]; 62 g ai/ha): 0 | Plant response rating (0 to 100), Wheat ([6]; 125 g ai/ha): 0 | Plant response rating, Wheat ([6]; 250 g ai/ha): 0 | Plant response rating, Wheat ([6]; 500 g ai/ha): 0 | Plant response rating, Corn ([7]; 500 g ai/ha): 10 | Plant response rating (0 to 100), Pigweed ([8]; 62 g ai/ha): 75 | Plant response rating (0 to 100), Pigweed ([8]; 125 g ai/ha): 80 | Plant response rating, Pigweed ([8]; 500 g ai/ha): 85 | Plant response rating (0 to 100), Galium ([9]; 62 g ai/ha): 0 | Plant response rating (0 to 100), Galium ([9]; 125 g ai/ha): 0 | Plant response rating, Galium ([9]; 250 g ai/ha): 0 | Plant response rating, Galium ([9]; 500 g ai/ha): 20 | Plant response rating (0 to 100), Soybean ([10]; 62 g ai/ha): 0 | Plant response rating (0 to 100), Soybean ([10]; 125 g ai/ha): 0 | Plant response rating, Soybean ([10]; 250 g ai/ha): 10 | Plant response rating, Soybean ([10]; 500 g ai/ha): 15 | Plant response rating (0 to 100), Ryegrass, Italian ([11]; 62 g ai/ha): 0 | Plant response rating (0 to 100), Ryegrass, Italian ([11]; 125 g ai/ha): 0 | Plant response rating, Ryegrass, Italian ([11]; 250 g ai/ha): 0 | Plant response rating, Ryegrass, Italian ([11]; 500 g ai/ha): 5 | Plant response rating (0 to 100), Johnsongrass ([12]; 62 g ai/ha): 0 | Plant response rating (0 to 100), Johnsongrass ([12]; 125 g ai/ha): 0 | Plant response rating, Johnsongrass ([12]; 250 g ai/ha): 10 | Plant response rating, Johnsongrass ([12]; 500 g ai/ha): 15 | Plant response rating (0 to 100), Foxtail, Giant ([13]; 62 g ai/ha): 0 | Plant response rating (0 to 100), Foxtail, Giant ([13]; 125 g ai/ha): 0 | Plant response rating, Foxtail, Giant ([13]; 250 g ai/ha): 5 | Plant response rating, Foxtail, Giant ([13]; 500 g ai/ha): 10

CCn1cc(C(=O)c2cccs2)c(-c2cc(Cl)cc(Cl)c2)n1 [Compound 18]
Plant response rating (0 to 100), Kochia ([1]; 62 g ai/ha): 20 | Plant response rating (0 to 100), Kochia ([1]; 125 g ai/ha): 40 | Plant response rating, Kochia ([1]; 250 g ai/ha): 45 | Plant response rating, Kochia ([1]; 500 g ai/ha): 60 | Plant response rating (0 to 100), Chickweed ([2]; 62 g ai/ha): 50 | Plant response rating (0 to 100), Chickweed ([2]; 125 g ai/ha): 80 | Plant response rating, Chickweed ([2]; 250 g ai/ha): 98 | Plant response rating, Chickweed ([2]; 500 g ai/ha): 100 | Plant response rating (0 to 100), Oat, Wild ([3]; 62 g ai/ha): 0 | Plant response rating (0 to 100), Oat, Wild ([3]; 125 g ai/ha): 0 | Plant response rating, Oat, Wild ([3]; 250 g ai/ha): 0 | Plant response rating, Oat, Wild ([3]; 500 g ai/ha): 0 | Plant response rating (0 to 100), Lambsquarters ([4]; 62 g ai/ha): 60 | Plant response rating (0 to 100), Lambsquarters ([4]; 125 g ai/ha): 85 | Plant response rating, Lambsquarters ([4]; 250 g ai/ha): 85 | Plant response rating, Lambsquarters ([4]; 500 g ai/ha): 90 | Plant response rating (0 to 100), Nutsedge, Yellow ([5]; 62 g ai/ha): 0 | Plant response rating (0 to 100), Nutsedge, Yellow ([5]; 125 g ai/ha): 0 | Plant response rating, Nutsedge, Yellow ([5]; 250 g ai/ha): 5 | Plant response rating, Nutsedge, Yellow ([5]; 500 g ai/ha): 5 | Plant response rating (0 to 100), Wheat ([6]; 62 g ai/ha): 0 | Plant response rating (0 to 100), Wheat ([6]; 125 g ai/ha): 0 | Plant response rating, Wheat ([6]; 250 g ai/ha): 0 | Plant response rating, Wheat ([6]; 500 g ai/ha): 5 | Plant response rating (0 to 100), Corn ([7]; 125 g ai/ha): 5 | Plant response rating, Corn ([7]; 250 g ai/ha): 10 | Plant response rating (0 to 100), Pigweed ([8]; 62 g ai/ha): 85 | Plant response rating (0 to 100), Pigweed ([8]; 125 g ai/ha): 100 | Plant response rating, Pigweed ([8]; 250 g ai/ha): 100 | Plant response rating, Pigweed ([8]; 500 g ai/ha): 100 | Plant response rating (0 to 100), Galium ([9]; 62 g ai/ha): 0 | Plant response rating (0 to 100), Galium ([9]; 125 g ai/ha): 0 | Plant response rating, Galium ([9]; 250 g ai/ha): 0 | Plant response rating, Galium ([9]; 500 g ai/ha): 35 | Plant response rating (0 to 100), Soybean ([10]; 62 g ai/ha): 5 | Plant response rating (0 to 100), Soybean ([10]; 125 g ai/ha): 15 | Plant response rating, Soybean ([10]; 250 g ai/ha): 20 | Plant response rating, Soybean ([10]; 500 g ai/ha): 20 | Plant response rating (0 to 100), Ryegrass, Italian ([11]; 62 g ai/ha): 0 | Plant response rating (0 to 100), Ryegrass, Italian ([11]; 125 g ai/ha): 0 | Plant response rating, Ryegrass, Italian ([11]; 250 g ai/ha): 0 | Plant response rating, Ryegrass, Italian ([11]; 500 g ai/ha): 5 | Plant response rating (0 to 100), Johnsongrass ([12]; 62 g ai/ha): 0 | Plant response rating, Johnsongrass ([12]; 250 g ai/ha): 0 | Plant response rating, Johnsongrass ([12]; 500 g ai/ha): 5 | Plant response rating (0 to 100), Foxtail, Giant ([13]; 62 g ai/ha): 5 | Plant response rating (0 to 100), Foxtail, Giant ([13]; 125 g ai/ha): 10 | Plant response rating, Foxtail, Giant ([13]; 250 g ai/ha): 15 | Plant response rating, Foxtail, Giant ([13]; 500 g ai/ha): 20
